Measurements published in patent publication US6156700A, “3-(1,2-Benzisothiazol- and isoxazol-5-yl)-2,4(1H,3H)-pyrimidinedione or thione and 3-(1,2-benzisothiazol- and isoxazol-5-yl)-4(3H)-pyrimidinone or thione herbicidal agents” (American Cyanmid Company, priority 1998, dated 2000).

How the values were obtained:
Settings in all cases: 0.0630 kg/ha
[1] = tested on: Soybean, Williams, Glycine max; experiment: Postemergence herbicidal evaluation, GLXMAW; format: in vivo, (L.) Merr. cv Williams
Procedure: (§1) In the tests, seedling plants are grown in jiffy flats for about two weeks. The test compounds are dispersed in 50/50 acetone/water mixtures containing 0.5% TWEEN®20, a polyoxyethylene sorbitan monolaurate surfactant of Atlas Chemical Industries, in sufficient quantities to provide the equivalent of about 0.0157 kg to 0.500 kg per hectare of active compound when applied to the plants through a spray nozzle operating at 40 psi for a predetermined time. After spraying, the plants are placed on greenhouse benches and are cared for in accordance with conventional greenhouse procedures. From four to five weeks after treatment, the seedling plants are examined and rated according to the rating system set forth below. Where more than one test is involved for a given compound, the data are averaged.
(§2) Results of herbicide evaluation are expressed on a rating scale (0-9). The scale is based upon a visual observation of plant stand, vigor, malformation, size, chlorosis and overall plant appearance as compared with a control.

[2] = tested on: Velvetleaf, Abutilon theophrasti; experiment: Postemergence herbicidal evaluation, ABUTH; format: in vivo, Medic.
Procedure: as §1, §2

[3] = tested on: Lambsquarters, Common, Chenopodium album; experiment: Postemergence herbicidal evaluation, CHEAL; format: in vivo, L.
Procedure: as §1, §2

[4] = tested on: Sicklepod, Cassia obtusifolia; experiment: Postemergence herbicidal evaluation, CASOB; format: in vivo, L.
Procedure: as §1, §2

[5] = tested on: Wheat, Winter, cv Riband, Triticum aestivum; experiment: Postemergence herbicidal evaluation, TRZAWR; format: in vivo
Procedure: as §1, §2

[6] = tested on: Rice, Tebonnet, Oryza sativa; experiment: Postemergence herbicidal evaluation, ORYSAT; format: in vivo, (L.) Tebonnet
Procedure: as §1, §2

Galium, Galium aparine = experiment: Postemergence herbicidal evaluation, GALAP; format: in vivo
Procedure: as §1, §2

Corn, Field, Zea mays = experiment: Postemergence herbicidal evaluation, ZEAMX; format: in vivo, L.
Procedure: as §1, §2

[7] = tested on: Barnyardgrass, Echinochloa crus-galli; experiment: Postemergence herbicidal evaluation, ECHCG; format: in vivo, (L.) Beau
Procedure: as §1, §2

[8] = tested on: Foxtail, Green, Setaria viridis; experiment: Postemergence herbicidal evaluation, SETVI; format: in vivo, (L.) Beau
Procedure: as §1, §2

[9] = tested on: Morningglory, Ivyleaf, Ipomoea hederacea; experiment: Postemergence herbicidal evaluation, IPOHE; format: in vivo, (L.) Jacq.
Procedure: as §1, §2

[10] = tested on: Ragweed, Common, Ambrosia artemisifolia; experiment: Postemergence herbicidal evaluation, AMBEL; format: in vivo, L.
Procedure: as §1, §2

| Structure (SMILES) | herbicide rating (0-9) [1] | herbicide rating (0-9) [2] | herbicide rating (0-9) [3] | herbicide rating (0-9) [4] | herbicide rating (0-9) [5] | herbicide rating (0-9) [6] | herbicide rating (0-9) (Galium, Galium aparine) | herbicide rating (0-9) (Corn, Field, Zea mays) | herbicide rating (0-9) [7] | herbicide rating (0-9) [8] | herbicide rating (0-9) [9] | herbicide rating (0-9) [10] |
| --- | --- | --- | --- | --- | --- | --- | --- | --- | --- | --- | --- | --- |
| Cc1ccc(OCC(=O)n2cnc3ccccc32)c(-c2nsc3ccc(-n4c(=O)cc(C(F)(F)F)n(C)c4=O)cc23)c1 [Compound 62] | 9.0 | 9.0 | 9.0 | 7.0 | 5.5 | 5.5 | 6.0 | 7.0 | 9.0 | 9.0 | 9.0 | 9.0 |
| COc1cc(C)c(C)c(C)c1-c1nsc2ccc(-n3c(=O)cc(C(F)(F)F)n(C)c3=O)cc12 [Compound 34, 3-[3-(6-Methoxy-2,3,4-trimethylphenyl)-1,2-benzisothiazol-5-yl]-1-methyl-6-(trifluoromethyl)-2,4(1H,3H)-pyrimidinedione] | 3.0 | 0.0 | 4.0 | 0.0 | 0.0 | 0.0 | 0.0 | 4.0 | 1.0 | 7.0 | 0.0 | 1.0 |
| COC(=O)C(C)Oc1ccc(C)cc1-c1nsc2ccc(-n3c(=S)cc(C(F)(F)F)n(C)c3=O)cc12 (stereo not drawn) [Compound 33, Methyl 2-{{2-{5-[3,6-dihydro-3-methyl-2-oxo-6-thioxo-4-(trifluoromethyl)-1(2H)-pyrimidinyl]-1,2-benzisothiazol-3-yl}-p-tolyl}oxy}propionate] | 6.0 | 9.0 | 9.0 | 8.0 | 8.5 | 7.5 | 9.0 | 8.5 | 9.0 | 9.0 | 9.0 | 9.0 |
| C=CCOC(=O)C(C)Oc1ccc(C)cc1-c1nsc2ccc(-n3c(=O)cc(C(F)(F)F)n(C)c3=O)cc12 (stereo not drawn) [Compound 78, Allyl 2-{{2-{5-[3,6-dihydro-3-methyl-2,6-dioxo-4-(trifluoromethyl)-1(2H)-pyrimidinyl]-1,2-benzisothiazol-3-yl}-p-tolyl}oxy}propionate] | 6.5 | 9.0 | 9.0 | 3.0 | 9.0 | 7.0 | 7.0 | 7.5 | 9.0 | 9.0 | 9.0 | 9.0 |
| C#CCOC(=O)C(C)Oc1ccc(C)cc1-c1nsc2ccc(-n3c(=O)cc(C(F)(F)F)n(C)c3=O)cc12 (stereo not drawn) [Compound 77, 2-Propynyl 2-{{2-{5-[3,6-dihydro-3-methyl-2,6-dioxo-4-(trifluoromethyl)-1(2H)-pyrimidinyl]-1,2-benzisothiazol-3-yl}-p-tolyl}oxy}propionate] | 7.0 | 9.0 | 9.0 | 4.0 | 9.0 | 9.0 | 9.0 | 8.0 | 9.0 | 9.0 | 9.0 | 9.0 |
| Cc1ccc(OCC(=O)OC(C)C(C)(C)C)c(-c2nsc3ccc(-n4c(=O)cc(C(F)(F)F)n(C)c4=O)cc23)c1 (stereo not drawn) [Compound 85, 1,2,2-Trimethylpropyl {{2-{5-[3,6-dihydro-3-methyl-2,6-dioxo-4-(trifluoromethyl)-1(2H)-pyrimidinyl]-1,2-benzisothiazol-3-yl}-p-tolyl}oxy}acetate] | 7.0 | 5.0 | 5.0 | 2.0 | 5.5 | 5.0 | 5.0 | 6.5 | 7.0 | 8.0 | 9.0 | 2.0 |
| Cn1c(C(F)(F)F)cc(=O)n(-c2ccc3snc(Cl)c3c2)c1=O [Compound 37, 3-(3-chloro-1,2-benzisothiazol-5-yl)-1-methyl-6-(trifluoromethyl)-2,4(1H,3H)-pyrimidinedione] | 1.5 | 1.0 | 0.0 | 0.0 | 0.5 | 0.5 | 0.0 | 2.0 | 0.0 | 0.0 | 1.0 | 0.0 |
| CC(=O)OCc1nsc2ccc(-n3c(=O)cc(C(F)(F)F)n(C)c3=O)cc12 [Compound 32, 3-[3-(Hydroxymethyl)-1,2-benzisothiazol-5-yl]-1-methyl-6-(trifluoromethyl)-2,4(1H,3H)-pyrimidinedione,acetate ester] | 5.5 | 9.0 | 9.0 | 4.0 | 2.0 | 1.0 | 7.0 | 5.5 | 2.0 | 5.0 | 9.0 | 9.0 |
| COCc1nsc2ccc(-n3c(=O)cc(C(F)(F)F)n(C)c3=O)cc12 [Compound 31, 3-[3-(Methoxymethyl)-1,2-benzisothiazol-5-yl]-1-methyl-6-(trifluoromethyl)-2,4 (1H,3H)-pyrimidinedione] | 9.0 | 9.0 | 9.0 | 9.0 | 3.0 | 3.0 | 8.0 | 6.0 | 4.0 | 9.0 | 9.0 | 9.0 |
| Cn1c(C(F)(F)F)cc(=O)n(-c2ccc3snc(Br)c3c2)c1=O [Compound 36, 3-(3-Bromo-1,2-benzisothiazol-5-yl)-1-methyl-6-(trifluoromethyl)-2,4(1H,3H)-pyrimidinedione] | 0.0 | 0.0 | 0.0 | 0.0 | 0.5 | 0.5 | 0.0 | 1.5 | 1.0 | 9.0 | 1.0 | 0.0 |
